The values below come from article PMC9770967, “Native holdup (nHU) to measure binding affinities from cell extracts” (Science Advances, 2022).

Structures are written as SMILES. *1 amine or outer side, *2 acyl side, *3 side chain or, on linkers, in order; H or OH if unused. Where a SMILES comes first, the peptide text is derived from it. The star is where a group is joined. X1 = O=C(CCCC[C@@H]1SC[C@@H]2NC(=O)N[C@@H]21)NCCCOCCOCCOCCCN*; Suc = O=C(CCC(=O)[*:2])[*:1]

Assay [1] addresses isolated PDZ domain of SNX27. The following applies: 10-mer PBM peptide vs isolated PDZ domain, holdup; cited from earlier work.
The target in assay [2] is SCRIB PDZ4. To be noted: fragmentomic, isolated PDZ domain; cited from earlier work. The text has this: (§1) Supplement sciadv.ade3828_table_s1.zip/sciadv.ade3828_table_s1.xlsx, sheet "nHU-WB_SP"
For assay [3], the target named is SCRIB PDZ2. The following applies: fragmentomic, isolated PDZ domain; cited from earlier work.
Description: as §1

The target of assay [4] is SCRIB PDZ3. The following applies: fragmentomic, isolated PDZ domain; cited from earlier work.
Description: as §1

Assay [5] addresses SCRIB PDZ1. To be noted: fragmentomic, isolated PDZ domain; cited from earlier work. The text has this: Supplement sciadv.ade3828_table_s1.zip/sciadv.ade3828_table_s1.xlsx, sheet "nHU-WB_SP" | column: Domain-motif fragmentomic affinities (ProfAff)
Assay [6] has as its target isolated PDZ domain of SNX27. The following applies: calorimetry; cited from earlier work.
For assay [7], the target named is endogenous full-length SCRIB (Homo sapiens, UniProt Q14160). The class given is binding. To be noted: titration, Jurkat extract.
Sequence of endogenous full-length SCRIB (Q14160 whole entry): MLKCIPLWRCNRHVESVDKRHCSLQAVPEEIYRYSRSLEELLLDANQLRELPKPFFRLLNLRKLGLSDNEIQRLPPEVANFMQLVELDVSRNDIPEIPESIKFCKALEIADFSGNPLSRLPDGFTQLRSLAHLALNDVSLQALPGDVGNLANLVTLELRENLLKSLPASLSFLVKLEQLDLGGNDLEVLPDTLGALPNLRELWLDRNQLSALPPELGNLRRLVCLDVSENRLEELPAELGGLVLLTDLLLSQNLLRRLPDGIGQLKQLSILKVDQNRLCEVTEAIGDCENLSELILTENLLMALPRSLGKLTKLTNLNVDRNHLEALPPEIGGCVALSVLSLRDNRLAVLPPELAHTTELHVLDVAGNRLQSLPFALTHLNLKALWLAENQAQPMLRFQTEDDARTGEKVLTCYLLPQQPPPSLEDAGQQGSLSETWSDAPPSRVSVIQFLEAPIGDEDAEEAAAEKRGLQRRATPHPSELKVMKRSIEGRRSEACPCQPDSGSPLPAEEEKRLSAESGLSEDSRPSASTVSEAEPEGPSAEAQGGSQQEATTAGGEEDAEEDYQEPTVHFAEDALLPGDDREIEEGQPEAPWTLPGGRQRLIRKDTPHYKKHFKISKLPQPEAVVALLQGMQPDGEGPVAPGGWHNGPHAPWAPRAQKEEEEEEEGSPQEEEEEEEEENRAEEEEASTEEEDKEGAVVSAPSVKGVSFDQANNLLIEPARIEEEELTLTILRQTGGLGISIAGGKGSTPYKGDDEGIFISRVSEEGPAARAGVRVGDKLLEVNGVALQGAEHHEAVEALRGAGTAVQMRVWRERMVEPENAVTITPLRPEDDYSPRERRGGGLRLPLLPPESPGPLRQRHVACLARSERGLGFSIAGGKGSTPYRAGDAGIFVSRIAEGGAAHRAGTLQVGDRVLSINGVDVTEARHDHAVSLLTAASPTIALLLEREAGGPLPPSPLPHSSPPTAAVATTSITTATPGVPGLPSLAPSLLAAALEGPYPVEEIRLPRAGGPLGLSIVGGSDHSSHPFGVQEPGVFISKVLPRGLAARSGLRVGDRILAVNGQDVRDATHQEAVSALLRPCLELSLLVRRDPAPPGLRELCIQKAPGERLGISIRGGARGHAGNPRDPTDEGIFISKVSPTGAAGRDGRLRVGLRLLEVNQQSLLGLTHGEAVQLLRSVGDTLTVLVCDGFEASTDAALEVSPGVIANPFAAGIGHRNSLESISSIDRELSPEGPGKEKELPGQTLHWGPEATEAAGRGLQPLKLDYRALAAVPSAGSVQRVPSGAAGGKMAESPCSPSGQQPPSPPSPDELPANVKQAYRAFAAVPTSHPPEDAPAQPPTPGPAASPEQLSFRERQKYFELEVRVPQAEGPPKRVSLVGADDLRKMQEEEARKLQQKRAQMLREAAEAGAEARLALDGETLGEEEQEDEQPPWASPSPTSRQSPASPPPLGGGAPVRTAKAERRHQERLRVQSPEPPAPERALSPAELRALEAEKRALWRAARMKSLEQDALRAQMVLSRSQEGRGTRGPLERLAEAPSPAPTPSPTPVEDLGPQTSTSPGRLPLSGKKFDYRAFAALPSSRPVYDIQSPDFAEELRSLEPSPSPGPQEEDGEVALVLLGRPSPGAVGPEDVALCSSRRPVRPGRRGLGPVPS

Regarding `CC[C@H](C)[C@H](NC(=O)CCC(=O)NCCCOCCOCCOCCCNC(=O)CCCC[C@@H]1SC[C@@H]2NC(=O)N[C@@H]21)C(=O)N[C@@H](CCC(N)=O)C(=O)N[C@@H](CCCNC(=N)N)C(=O)N[C@@H](CCC(=O)O)C(=O)N[C@@H](CC(=O)O)C(=O)N[C@@H](CCC(N)=O)C(=O)N[C@@H](CCC(=O)O)C(=O)N[C@H](C(=O)N[C@@H](C)C(=O)N[C@H](C(=O)O)C(C)C)[C@@H](C)O` [DGKZ] ({X1-Suc}-IQREDQETAV-OH; C-terminus assumed), the “pKd (fragmentomic affinity)” value in assay [1] is 6.0. For the same molecule, the pKd_PDZ4 in assay [2] was 4.40. For the same molecule, the pKd_PDZ2 in assay [3] is 4.86. The pKd_PDZ3 in assay [4] is 5.05. Further, the pKd_PDZ1 in assay [5] is reported as 4.71. For the same molecule, the pKd in assay [6] was 5.7. This molecule also registered a Hill coefficient in assay [7] (Hill equation fit, three replicates) of 0.6. In addition, in assay [7], the cooperativity entry is given as “negative cooperativity”.

For `CC(C)C[C@H](NC(=O)[C@H](CO)NC(=O)[C@H](CO)NC(=O)CCC(=O)NCCCOCCOCCOCCCNC(=O)CCCC[C@@H]1SC[C@@H]2NC(=O)N[C@@H]21)C(=O)N[C@@H](CCC(N)=O)C(=O)N[C@@H](CO)C(=O)N[C@@H](CC(C)C)C(=O)N[C@@H](CCC(=O)O)C(=O)N[C@H](C(=O)N[C@@H](CO)C(=O)N[C@H](C(=O)O)C(C)C)[C@@H](C)O` [ATP2B4] ({X1-Suc}-SSLQSLETSV-OH; C-terminus assumed), the “pKd (fragmentomic affinity)” value in assay [1] is recorded as 5.70. Also, the pKd_PDZ4 in assay [2] is given as 4.38. In addition, the pKd_PDZ2 in assay [3] is reported as 4.90. In assay [4], the pKd_PDZ3 was 5.11. The pKd_PDZ1 in assay [5] is 5.03.
